Consider one molecule from ChEMBL document CHEMBL1148572, “1-((S)-2-aminopropyl)-1H-indazol-6-ol: a potent peripherally acting 5-HT2 receptor agonist with ocular hypotensive activity” (J Med Chem, 2006).

Data set [1] addresses Leukotriene B4 receptor (Homo sapiens) (UniProt Q9NPC1+Q15722). Briefly: Inhibition of leukotriene B4 at 1 nM. The class given is protein assay.
Data set [2] addresses T1, Endothelin-1 receptor (Homo sapiens) (UniProt P25101).
T1 sequence (whole entry): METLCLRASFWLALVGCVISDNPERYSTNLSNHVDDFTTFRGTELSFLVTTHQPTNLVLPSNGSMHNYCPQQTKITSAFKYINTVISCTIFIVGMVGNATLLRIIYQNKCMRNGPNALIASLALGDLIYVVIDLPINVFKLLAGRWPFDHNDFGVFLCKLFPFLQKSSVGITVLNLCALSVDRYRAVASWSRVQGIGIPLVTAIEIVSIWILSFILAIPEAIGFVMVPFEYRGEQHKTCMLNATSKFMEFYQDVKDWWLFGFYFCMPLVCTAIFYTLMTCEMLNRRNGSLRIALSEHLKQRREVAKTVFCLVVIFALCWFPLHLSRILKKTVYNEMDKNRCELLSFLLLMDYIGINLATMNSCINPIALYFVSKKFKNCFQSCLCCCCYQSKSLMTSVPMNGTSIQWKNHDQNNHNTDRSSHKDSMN
The data set can be described thus: Inhibition of human recombinant endothelin 1 receptor at 10 uM.

Data set [3] concerns the target T2, monoamine oxidase B (MAO-B) (Rattus norvegicus, UniProt P19643).
T2 sequence (P19643 whole entry): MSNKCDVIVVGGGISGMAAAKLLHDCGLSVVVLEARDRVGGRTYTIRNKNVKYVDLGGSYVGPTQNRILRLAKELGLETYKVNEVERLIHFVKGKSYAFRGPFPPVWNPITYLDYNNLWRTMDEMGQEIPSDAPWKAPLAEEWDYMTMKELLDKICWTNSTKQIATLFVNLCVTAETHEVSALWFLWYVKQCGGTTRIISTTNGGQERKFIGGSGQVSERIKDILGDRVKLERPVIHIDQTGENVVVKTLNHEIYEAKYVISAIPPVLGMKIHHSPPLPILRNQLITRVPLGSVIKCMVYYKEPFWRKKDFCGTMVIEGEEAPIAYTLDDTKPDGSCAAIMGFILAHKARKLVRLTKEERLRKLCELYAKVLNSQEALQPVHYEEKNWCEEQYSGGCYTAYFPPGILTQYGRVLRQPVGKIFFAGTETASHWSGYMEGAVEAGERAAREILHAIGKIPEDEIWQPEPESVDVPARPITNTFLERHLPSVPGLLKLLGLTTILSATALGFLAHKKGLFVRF
Briefly: Inhibition of monoamine oxidase B in rat brain at 10 uM. The class given is tissue-based.

Data set [4] concerns the target Voltage-dependent N-type calcium channel subunit alpha-1B (Homo sapiens) (UniProt Q00975). The data set can be described thus: Inhibitory activity at Calcium channel N type at 100 nM.
A short description of data set [5]: Inhibition of P2Y purinergic receptor at 1 nM.
Data set [6] has as its target T2, monoamine oxidase B (MAO-B). The data set can be described thus: Inhibition of monoamine oxidase B in rat brain at 100 nM. The class given is tissue-based.
Data set [7] deals with Serotonin 3 (5-HT3) receptor. The data set can be described thus: Inhibitory activity against 5HT3 receptor. The class given is protein-complex assay, Homo sapiens.
The target in data set [8] is Sigma non-opioid intracellular receptor 1 (Homo sapiens) (UniProt Q99720). Briefly: Inhibition of non selective binding to sigma receptor at 10 uM.
Chain of Sigma non-opioid intracellular receptor 1 (Homo sapiens) (Q99720 whole entry): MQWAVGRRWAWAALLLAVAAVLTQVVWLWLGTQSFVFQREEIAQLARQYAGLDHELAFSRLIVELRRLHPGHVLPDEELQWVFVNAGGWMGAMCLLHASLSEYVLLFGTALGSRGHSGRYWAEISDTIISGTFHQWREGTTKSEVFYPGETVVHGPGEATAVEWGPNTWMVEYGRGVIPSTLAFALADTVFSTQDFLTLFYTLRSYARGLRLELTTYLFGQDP
In data set [9] the target is Adenosine receptor (Homo sapiens) (UniProt P30542+P29275+P0DMS8+P29274). Briefly: Inhibition of non selective binding to adenosine receptor at 10 uM. Type of data set: protein assay.
Chain of Adenosine receptor (Homo sapiens) (P0DMS8 whole entry, looked up): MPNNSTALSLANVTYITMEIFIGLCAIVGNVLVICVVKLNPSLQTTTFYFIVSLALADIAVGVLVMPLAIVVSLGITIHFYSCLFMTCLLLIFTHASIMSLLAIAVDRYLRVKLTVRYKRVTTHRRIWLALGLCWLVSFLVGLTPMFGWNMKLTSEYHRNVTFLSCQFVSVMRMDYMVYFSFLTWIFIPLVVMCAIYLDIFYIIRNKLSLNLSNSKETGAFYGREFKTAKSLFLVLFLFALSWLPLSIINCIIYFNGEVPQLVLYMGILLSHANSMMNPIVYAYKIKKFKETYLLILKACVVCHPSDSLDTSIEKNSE
Chain of Adenosine receptor (Homo sapiens) (P29274 whole entry, looked up): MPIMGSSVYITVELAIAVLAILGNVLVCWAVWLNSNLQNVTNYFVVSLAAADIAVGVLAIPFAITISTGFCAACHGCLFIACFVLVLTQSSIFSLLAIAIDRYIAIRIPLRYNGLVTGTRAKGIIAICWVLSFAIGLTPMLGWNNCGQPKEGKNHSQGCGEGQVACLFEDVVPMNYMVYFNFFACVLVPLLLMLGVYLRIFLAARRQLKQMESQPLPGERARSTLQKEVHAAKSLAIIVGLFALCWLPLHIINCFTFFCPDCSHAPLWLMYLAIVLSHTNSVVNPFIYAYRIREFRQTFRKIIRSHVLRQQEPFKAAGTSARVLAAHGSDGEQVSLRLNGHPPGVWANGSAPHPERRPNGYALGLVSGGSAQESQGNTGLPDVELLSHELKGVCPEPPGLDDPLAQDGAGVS
Chain of Adenosine receptor (Homo sapiens) (P29275 whole entry, looked up): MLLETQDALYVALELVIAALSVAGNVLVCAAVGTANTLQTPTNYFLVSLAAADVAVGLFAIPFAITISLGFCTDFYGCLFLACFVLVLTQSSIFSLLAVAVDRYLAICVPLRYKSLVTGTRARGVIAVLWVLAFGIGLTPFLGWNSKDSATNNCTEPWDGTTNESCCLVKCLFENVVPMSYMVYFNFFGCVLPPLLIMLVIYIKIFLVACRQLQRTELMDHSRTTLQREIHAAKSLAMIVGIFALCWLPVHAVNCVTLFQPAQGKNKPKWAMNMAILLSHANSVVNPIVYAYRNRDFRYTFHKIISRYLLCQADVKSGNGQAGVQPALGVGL
Chain of Adenosine receptor (Homo sapiens) (P30542 whole entry, looked up): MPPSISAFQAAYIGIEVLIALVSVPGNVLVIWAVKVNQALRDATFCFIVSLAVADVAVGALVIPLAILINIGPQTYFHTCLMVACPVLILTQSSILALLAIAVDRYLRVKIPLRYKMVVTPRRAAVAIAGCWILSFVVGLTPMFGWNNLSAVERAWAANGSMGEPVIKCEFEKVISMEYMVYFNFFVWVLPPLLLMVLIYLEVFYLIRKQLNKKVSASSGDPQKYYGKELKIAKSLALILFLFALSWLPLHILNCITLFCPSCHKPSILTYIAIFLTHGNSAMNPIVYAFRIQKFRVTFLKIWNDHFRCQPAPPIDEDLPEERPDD
Data set [10] addresses T3, Atrial natriuretic peptide receptor 1 (Homo sapiens) (UniProt P16066).
T3 sequence (whole entry): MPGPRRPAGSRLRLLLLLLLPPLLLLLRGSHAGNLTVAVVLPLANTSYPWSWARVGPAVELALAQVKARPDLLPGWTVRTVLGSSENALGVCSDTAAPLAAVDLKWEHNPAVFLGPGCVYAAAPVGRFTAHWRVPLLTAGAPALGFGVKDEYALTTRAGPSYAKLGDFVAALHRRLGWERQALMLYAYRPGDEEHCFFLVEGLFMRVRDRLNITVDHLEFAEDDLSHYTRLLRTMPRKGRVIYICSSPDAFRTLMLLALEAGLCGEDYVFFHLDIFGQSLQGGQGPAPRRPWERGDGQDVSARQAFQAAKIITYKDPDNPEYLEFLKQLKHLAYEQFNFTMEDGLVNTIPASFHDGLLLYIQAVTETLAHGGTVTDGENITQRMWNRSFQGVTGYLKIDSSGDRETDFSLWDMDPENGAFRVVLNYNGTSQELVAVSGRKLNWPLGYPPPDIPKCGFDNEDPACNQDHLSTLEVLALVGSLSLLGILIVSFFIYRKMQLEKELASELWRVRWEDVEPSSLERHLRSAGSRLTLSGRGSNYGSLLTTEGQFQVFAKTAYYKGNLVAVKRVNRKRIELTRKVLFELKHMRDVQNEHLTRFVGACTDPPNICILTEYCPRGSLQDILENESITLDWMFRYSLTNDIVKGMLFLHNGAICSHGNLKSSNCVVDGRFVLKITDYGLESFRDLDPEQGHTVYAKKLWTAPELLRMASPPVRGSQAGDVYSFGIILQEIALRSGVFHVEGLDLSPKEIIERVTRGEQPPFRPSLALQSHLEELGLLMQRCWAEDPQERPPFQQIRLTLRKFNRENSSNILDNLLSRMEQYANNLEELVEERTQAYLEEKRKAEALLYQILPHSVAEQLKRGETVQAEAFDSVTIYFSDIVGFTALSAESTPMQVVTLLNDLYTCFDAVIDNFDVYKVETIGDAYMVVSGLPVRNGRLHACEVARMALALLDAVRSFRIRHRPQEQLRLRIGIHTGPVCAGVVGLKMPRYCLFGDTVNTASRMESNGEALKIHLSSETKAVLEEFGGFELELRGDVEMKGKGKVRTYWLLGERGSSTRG
The data set can be described thus: Inhibition of ANP A at 10 uM.

For data set [11], the target named is Adrenergic receptor beta (Homo sapiens) (UniProt P08588+P07550+P13945). The data set can be described thus: Inhibition of non selective binding to adrenergic beta receptor at 100 nM. Type of data set: protein assay.
For data set [12], the target named is T4, Alpha-2A adrenergic receptor (Homo sapiens, UniProt P08913).
T4 sequence (P08913 whole entry): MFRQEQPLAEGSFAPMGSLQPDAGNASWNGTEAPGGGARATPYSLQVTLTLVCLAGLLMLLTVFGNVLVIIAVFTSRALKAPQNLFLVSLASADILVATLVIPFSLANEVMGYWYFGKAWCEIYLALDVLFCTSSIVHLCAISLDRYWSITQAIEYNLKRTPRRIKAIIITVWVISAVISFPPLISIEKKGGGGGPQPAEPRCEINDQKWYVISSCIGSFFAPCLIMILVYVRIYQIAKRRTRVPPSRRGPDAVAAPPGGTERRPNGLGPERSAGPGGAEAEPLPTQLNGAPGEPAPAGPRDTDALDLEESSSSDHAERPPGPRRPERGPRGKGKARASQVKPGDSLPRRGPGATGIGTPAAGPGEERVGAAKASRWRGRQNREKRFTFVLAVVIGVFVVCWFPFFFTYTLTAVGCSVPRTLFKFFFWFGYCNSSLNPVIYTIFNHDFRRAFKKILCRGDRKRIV
The data set can be described thus: Displacement of [3H]clonidine from cloned human adrenergic alpha2A receptor expressed in Sf9 cells. On the technique in general: Displacement assays read how much labelled ligand stays bound in the presence of the test substance.

SMILES strings stand for the structures.

Chain of Leukotriene B4 receptor (Homo sapiens) (Q15722 whole entry, looked up): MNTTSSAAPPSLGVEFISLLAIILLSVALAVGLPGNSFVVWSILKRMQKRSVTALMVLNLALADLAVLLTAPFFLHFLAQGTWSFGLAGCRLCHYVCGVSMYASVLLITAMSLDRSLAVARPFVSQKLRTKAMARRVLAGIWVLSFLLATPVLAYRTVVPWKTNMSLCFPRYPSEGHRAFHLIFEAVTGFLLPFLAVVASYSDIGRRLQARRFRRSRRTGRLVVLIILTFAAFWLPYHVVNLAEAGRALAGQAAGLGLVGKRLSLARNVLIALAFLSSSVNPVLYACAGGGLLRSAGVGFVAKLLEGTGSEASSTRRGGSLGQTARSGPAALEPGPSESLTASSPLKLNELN
Chain of Leukotriene B4 receptor (Homo sapiens) (Q9NPC1 whole entry, looked up): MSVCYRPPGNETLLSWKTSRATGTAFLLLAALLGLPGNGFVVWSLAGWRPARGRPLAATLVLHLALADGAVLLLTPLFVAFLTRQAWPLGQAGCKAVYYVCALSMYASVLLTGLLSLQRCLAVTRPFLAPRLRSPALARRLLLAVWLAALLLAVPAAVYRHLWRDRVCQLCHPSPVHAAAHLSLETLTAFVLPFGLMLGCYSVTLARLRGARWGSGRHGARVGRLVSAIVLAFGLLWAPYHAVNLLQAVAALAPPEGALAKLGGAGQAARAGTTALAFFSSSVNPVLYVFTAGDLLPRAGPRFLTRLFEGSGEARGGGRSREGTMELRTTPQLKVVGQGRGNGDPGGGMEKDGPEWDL
Chain of Voltage-dependent N-type calcium channel subunit alpha-1B (Homo sapiens) (Q00975 whole entry, looked up): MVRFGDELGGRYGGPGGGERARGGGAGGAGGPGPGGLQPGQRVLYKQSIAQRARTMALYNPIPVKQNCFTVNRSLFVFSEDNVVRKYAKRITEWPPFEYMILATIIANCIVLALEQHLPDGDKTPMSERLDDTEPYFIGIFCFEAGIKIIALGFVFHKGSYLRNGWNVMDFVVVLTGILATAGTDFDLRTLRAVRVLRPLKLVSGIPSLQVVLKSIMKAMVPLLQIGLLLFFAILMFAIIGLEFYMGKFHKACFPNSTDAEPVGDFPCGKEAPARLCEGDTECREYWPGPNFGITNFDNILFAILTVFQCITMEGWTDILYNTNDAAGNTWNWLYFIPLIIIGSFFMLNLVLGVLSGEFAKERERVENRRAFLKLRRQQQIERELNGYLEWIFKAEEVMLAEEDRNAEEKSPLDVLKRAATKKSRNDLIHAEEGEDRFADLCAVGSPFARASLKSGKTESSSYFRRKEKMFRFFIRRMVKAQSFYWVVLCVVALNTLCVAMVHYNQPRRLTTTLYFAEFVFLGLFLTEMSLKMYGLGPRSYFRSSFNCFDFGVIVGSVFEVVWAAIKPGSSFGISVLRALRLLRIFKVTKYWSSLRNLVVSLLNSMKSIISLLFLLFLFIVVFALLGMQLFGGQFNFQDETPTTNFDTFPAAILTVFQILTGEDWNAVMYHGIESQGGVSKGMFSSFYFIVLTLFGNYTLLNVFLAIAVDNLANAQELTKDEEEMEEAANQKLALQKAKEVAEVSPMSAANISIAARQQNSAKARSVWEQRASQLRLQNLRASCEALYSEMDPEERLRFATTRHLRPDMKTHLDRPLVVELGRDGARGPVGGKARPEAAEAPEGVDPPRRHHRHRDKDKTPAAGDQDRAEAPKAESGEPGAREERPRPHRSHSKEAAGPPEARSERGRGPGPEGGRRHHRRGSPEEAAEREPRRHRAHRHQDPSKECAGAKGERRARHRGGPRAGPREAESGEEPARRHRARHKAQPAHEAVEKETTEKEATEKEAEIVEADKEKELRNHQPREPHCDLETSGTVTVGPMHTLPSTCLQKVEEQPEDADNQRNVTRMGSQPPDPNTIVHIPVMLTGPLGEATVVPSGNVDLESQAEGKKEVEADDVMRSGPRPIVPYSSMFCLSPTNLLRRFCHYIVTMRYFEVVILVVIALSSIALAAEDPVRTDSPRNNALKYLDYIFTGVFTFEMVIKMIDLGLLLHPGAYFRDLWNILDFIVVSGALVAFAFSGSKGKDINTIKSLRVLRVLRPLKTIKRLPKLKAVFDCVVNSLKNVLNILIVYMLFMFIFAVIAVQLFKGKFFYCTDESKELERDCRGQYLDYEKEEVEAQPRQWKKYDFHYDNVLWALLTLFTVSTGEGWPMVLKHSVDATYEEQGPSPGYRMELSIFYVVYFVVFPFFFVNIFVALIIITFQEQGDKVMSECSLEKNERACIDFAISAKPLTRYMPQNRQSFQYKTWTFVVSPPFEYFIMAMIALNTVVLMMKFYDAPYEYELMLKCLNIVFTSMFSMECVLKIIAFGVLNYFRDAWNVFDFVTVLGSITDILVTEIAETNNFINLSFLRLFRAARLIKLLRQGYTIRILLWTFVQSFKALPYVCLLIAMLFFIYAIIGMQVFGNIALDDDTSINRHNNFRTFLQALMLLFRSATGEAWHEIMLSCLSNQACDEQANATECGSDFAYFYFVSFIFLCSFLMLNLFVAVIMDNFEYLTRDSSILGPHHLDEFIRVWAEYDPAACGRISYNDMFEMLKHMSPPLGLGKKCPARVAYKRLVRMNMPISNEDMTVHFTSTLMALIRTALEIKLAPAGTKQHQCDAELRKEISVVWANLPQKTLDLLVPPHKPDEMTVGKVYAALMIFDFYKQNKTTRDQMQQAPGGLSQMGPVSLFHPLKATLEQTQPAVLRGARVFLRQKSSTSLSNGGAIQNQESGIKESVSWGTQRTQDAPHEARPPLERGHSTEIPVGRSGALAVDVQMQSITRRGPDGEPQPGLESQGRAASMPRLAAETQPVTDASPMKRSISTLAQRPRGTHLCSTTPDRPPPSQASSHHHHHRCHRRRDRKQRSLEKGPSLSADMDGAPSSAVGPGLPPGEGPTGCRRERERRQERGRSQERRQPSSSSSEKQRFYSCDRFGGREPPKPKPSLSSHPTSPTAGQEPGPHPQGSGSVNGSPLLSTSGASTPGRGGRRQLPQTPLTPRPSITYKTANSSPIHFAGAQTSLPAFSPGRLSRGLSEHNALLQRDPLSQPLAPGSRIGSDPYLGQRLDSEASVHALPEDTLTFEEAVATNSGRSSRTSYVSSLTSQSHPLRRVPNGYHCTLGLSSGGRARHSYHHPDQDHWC

As a reminder, the inhibition is the drop in the measured response relative to a control, in per cent. A word on the Ki: it is a dissociation constant, usually derived from enzyme kinetics or from competition with a known ligand. Turning to `C[C@H](N)Cn1ncc2ccc(O)cc21`, the inhibition in [1] is 0.44%; in data set [2] it was -6.96%; in data set [4], 2.01%; in data set [5] it was -2.2%; in data set [8] it was -7.73%; in data set [9], 13.2%. Besides, the inhibition was -5.3% in [10] and -7.77% in data set [11]. Besides, the inhibition at 10 µM in [3] is -18.4%. Further, the inhibition at 0.1 µM in [6] is -20%. For the same molecule, the inhibition constant (Ki) was over 10000 nM in data set [7] and 2270 nM in data set [12].
